Experimental data from patent US12077503B2, “Substituted cyclic amides and their use as herbicides” (FMC CORPORATION, priority 2015, dated 2024).
Where two headings read alike, the source gives them in different places.

Columns and labels:
[1] = test system: giant foxtail (Setaria faberii); test: Test A preemergence; format: in vivo; details: Setaria faberi, pre-emergence, 240 h; for pest or weed control at 125 g/ha: 125 g ai/ha; for pest or weed control at 500 g/ha: 500 g ai/ha
Outline: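 Preemergence directed soil spray on seeded pots, or postemergence application to plants 2–10 cm, one- to two-leaf. Solvent mixture non-phytotoxic, with surfactant. Scored ~10 d later, visually, 0–100 vs untreated.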

[2] = test system: sedge, umbrella (small-flower umbrella sedge, Cyperus difformis); test: Test B flooded paddy test; format: in vivo; details: Cyperus difformis, Flood, 250 g ai/ha
Outline: (§1)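 Evaluation by eye, against controls, occurred 13–15 d post-treatment in a greenhouse, using a 0 (no effect) to 100 (complete control) scale. Application was into the paddy water, 3 cm deep over the soil, on 2-leaf plants.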

[3] = test system: ducksalad (Heteranthera limosa); test: Test B flooded paddy test; format: in vivo; details: Heteranthera limosa, Flood, 250 g ai/ha
Outline: as §1

[4] = test system: barnyardgrass (Echinochloa crus-galli); test: Test B flooded paddy test; format: in vivo; details: Echinochloa crus-galli, Flood, 250 g ai/ha
Outline: as §1

rice (Oryra sativa) = test: Test B flooded paddy test; format: in vivo; details: Oryza sativa, Flood, 250 g ai/ha
Outline: as §1

[5] = preemergence, visual rating after approx. 10 d, 0 to 100 scale where 0 is no effect and 100 is complete control, read-out: Plant response rating, Foxtail, Giant
[6] = scale of 0 to 100 where 0 is no effect and 100 is complete control, read-out: Sedge, Umbrella plant response rating
[7] = scale of 0 to 100 where 0 is no effect and 100 is complete control, read-out: Ducksalad plant response rating
[8] = scale of 0 to 100 where 0 is no effect and 100 is complete control, read-out: Barnyardgrass plant response rating
[9] = scale of 0 to 100 where 0 is no effect and 100 is complete control, read-out: Rice plant response rating
[10] = preemergence, visual injury rating, 0 to 100 scale where 0 is no effect and 100 is complete control, approximately 10 d, read-out: Foxtail, Giant plant response rating
[11] = preemergence, 0 to 100 scale where 0 is no effect and 100 is complete control, read-out: Foxtail, Giant plant response rating
[12] = 0 to 100 scale where 0 is no effect and 100 is complete control, read-out: Sedge, Umbrella plant response rating
[13] = 0 to 100 scale where 0 is no effect and 100 is complete control, read-out: Ducksalad plant response rating
[14] = 0 to 100 scale where 0 is no effect and 100 is complete control, read-out: Barnyardgrass plant response rating
[15] = 0 to 100 scale where 0 is no effect and 100 is complete control, read-out: Rice plant response rating
[16] = preemergence, 0 to 100 scale (0 no effect, 100 complete control), read-out: Plant response rating, Foxtail, Giant
[17] = Preemergence, 0 to 100 scale (0 no effect, 100 complete control), read-out: Plant response rating, Foxtail, Giant
[18] = 360 h, visually evaluated after 13 to 15 d, read-out: Plant response rating, Sedge, Umbrella (0 to 100 scale where 0 is no effect and 100 is complete control)
[19] = 360 h, visually evaluated after 13 to 15 d, read-out: Plant response rating, Ducksalad (0 to 100 scale where 0 is no effect and 100 is complete control)
[20] = 360 h, visually evaluated after 13 to 15 d, read-out: Plant response rating, Barnyardgrass (0 to 100 scale where 0 is no effect and 100 is complete control)
[21] = 360 h, visually evaluated after 13 to 15 d, read-out: Plant response rating, Rice (0 to 100 scale where 0 is no effect and 100 is complete control)

Row | Compound | melting point [°C] | pest or weed control at 500 g/ha [1, 16] [%] | pest or weed control at 125 g/ha [1, 17] [%] | pest or weed control at 250 g/ha [2, 18] [%] | pest or weed control at 250 g/ha [3, 19] [%] | pest or weed control at 250 g/ha [4, 20] [%] | pest or weed control at 250 g/ha (rice (Oryra sativa); [21]) [%] | other results
1 | CN1C[C@H](c2ccc(C(F)(F)F)cc2)[C@@H](C(=O)Nc2ccccc2C(F)(F)F)C1=O [Compound 726] | 108 to 111 | – | – | – | – | – | – | pest or weed control at 125 g/ha [1, 5]: 90%; pest or weed control at 500 g/ha ([1]; preemergence, 0 to 100 scale, 0 = no effect, 100 = complete control, read-out: Plant response rating, Foxtail, Giant): 90%; pest or weed control at 250 g/ha [2, 6]: 0%; pest or weed control at 250 g/ha [3, 7]: 100%; pest or weed control at 250 g/ha [4, 8]: 55%; pest or weed control at 250 g/ha (rice (Oryra sativa); [9]): 0%
2 | C/C=C/C1CNC(=O)C1C(=O)Nc1cccc(F)c1F (centres unmarked) [Compound 793] | 151 to 155 | – | – | – | – | – | – | pest or weed control at 125 g/ha [1, 5]: 0%; pest or weed control at 31 g/ha ([1]; Preemergence, 31 g ai/ha, 0 to 100 scale (0 no effect, 100 complete control), read-out: Plant response rating, Foxtail, Giant): 0%; pest or weed control at 250 g/ha [2, 6]: 25%; pest or weed control at 250 g/ha [3, 7]: 25%; pest or weed control at 250 g/ha [4, 8]: 0%; pest or weed control at 250 g/ha (rice (Oryra sativa); [9]): 0%
3 | CN1C[C@H](c2ccc(C(F)(F)F)cc2)[C@@H](C(=O)Nc2cccc(Cl)c2F)C1=O [Compound 1238] | 138 to 141 | – | – | – | – | – | – | pest or weed control at 125 g/ha [1, 10]: 90%; pest or weed control at 500 g/ha [1, 11]: 90%; pest or weed control at 250 g/ha [2, 12]: 0%; pest or weed control at 250 g/ha [3, 13]: 0%; pest or weed control at 250 g/ha [4, 14]: 0%; pest or weed control at 250 g/ha (rice (Oryra sativa); [15]): 0%
4 | CN1CC(c2cccc(OCC=C(Cl)Cl)c2)C(C(=O)Nc2cccc(F)c2F)C1=O (centres unmarked) [Compound 1303] | 124 to 127 | – | – | – | – | – | – | pest or weed control at 125 g/ha [1, 10]: 40%; pest or weed control at 500 g/ha [1, 11]: 90%; pest or weed control at 250 g/ha [2, 12]: 0%; pest or weed control at 250 g/ha [3, 13]: 0%; pest or weed control at 250 g/ha [4, 14]: 0%; pest or weed control at 250 g/ha (rice (Oryra sativa); [15]): 0%
5 | Cc1ccc([C@H]2CN(C)C(=O)[C@@H]2C(=O)Nc2ccc(F)c(F)c2F)cc1 [Compound 1378] | 101.6 to 102.3 | 90 | 90 | 0 | 95 | 85 | 45 | –
6 | O=C1NC[C@H](c2cnc(C(F)(F)F)nc2)[C@H]1C(=O)Nc1cccc(F)c1F [Compound 1382] | 170 to 173 | 90 | 0 | 20 | 90 | 30 | 0 | –
7 | Cc1c(F)cccc1NC(=O)[C@H]1C(=O)N(C)C[C@@H]1c1ccc(C(F)(F)F)cc1 [Compound 1386] | 156 to 160 | 90 | 90 | 0 | 100 | 55 | 0 | –
8 | CN1C[C@H](c2cccc(C(F)(F)F)c2)[C@@H](C(=O)Nc2ccc(F)c(F)c2F)C1=O [Compound 1389] | – | 100 | 100 | 0 | 100 | 60 | 15 | –
9 | O=C1NC[C@H](c2nccc(C(F)(F)F)n2)[C@H]1C(=O)Nc1cccc(F)c1F [Compound 1392] | 154 to 158 | 60 | 0 | 0 | 30 | 0 | 0 | –
